Measured values published in the NIST ThermoML archive (doi:10.1016/j.jct.2013.03.015).

Assay: molar heat capacity at constant pressure; xn = mol fraction of the nth substance listed
Conditions: 101 kPa, Crystal, relaxation calorimetry - PPMS by Quantum Design

[Cl-].[K+] [potassium chloride] + [Cl-].[Na+]
Conditions | molar heat capacity at constant pressure [J/K/mol]
5.041 K, x2 = 0.9 | 0.0176
5.086 K, x2 = 0.2 | 0.0361
5.095 K, x2 = 0.1 | 0.0387
5.409 K, x2 = 0.9 | 0.0219
5.454 K, x2 = 0.2 | 0.0452
5.458 K, x2 = 0.1 | 0.0485
5.793 K, x2 = 0.9 | 0.027
5.856 K, x2 = 0.2 | 0.0564
5.879 K, x2 = 0.1 | 0.0601
6.208 K, x2 = 0.9 | 0.0335
6.274 K, x2 = 0.2 | 0.07
6.294 K, x2 = 0.1 | 0.0738
6.664 K, x2 = 0.9 | 0.0417
6.728 K, x2 = 0.2 | 0.0878
6.752 K, x2 = 0.1 | 0.0936
7.14 K, x2 = 0.9 | 0.0518
7.176 K, x2 = 0.2 | 0.1084
7.188 K, x2 = 0.1 | 0.1141
7.653 K, x2 = 0.9 | 0.0641
7.691 K, x2 = 0.2 | 0.1356
7.702 K, x2 = 0.1 | 0.1425
8.202 K, x2 = 0.9 | 0.0801
8.238 K, x2 = 0.2 | 0.1702
8.252 K, x2 = 0.1 | 0.1787
8.791 K, x2 = 0.9 | 0.1001
8.829 K, x2 = 0.2 | 0.215
8.84 K, x2 = 0.1 | 0.2244
9.422 K, x2 = 0.9 | 0.1252
9.461 K, x2 = 0.2 | 0.2712
9.475 K, x2 = 0.1 | 0.2828
10.1 K, x2 = 0.9 | 0.157
10.14 K, x2 = 0.2 | 0.3435
10.15 K, x2 = 0.1 | 0.357
10.83 K, x2 = 0.9 | 0.198
10.87 K, x2 = 0.2 | 0.4354
10.89 K, x2 = 0.1 | 0.4512
11.61 K, x2 = 0.9 | 0.2499
11.65 K, x2 = 0.2 | 0.5511
11.67 K, x2 = 0.1 | 0.5685
12.45 K, x2 = 0.9 | 0.3169
12.48 K, x2 = 0.2 | 0.6946
12.5 K, x2 = 0.1 | 0.7153
13.34 K, x2 = 0.9 | 0.4021
13.38 K, x2 = 0.2 | 0.8732
13.4 K, x2 = 0.1 | 0.8969
14.23 K, x2 = 0.9 | 0.51
14.34 K, x2 = 0.2 | 1.092
14.36 K, x2 = 0.1 | 1.12
15.33 K, x2 = 0.9 | 0.6479
15.37 K, x2 = 0.2 | 1.362
15.39 K, x2 = 0.1 | 1.395
16.43 K, x2 = 0.9 | 0.8219
16.47 K, x2 = 0.2 | 1.691
16.49 K, x2 = 0.1 | 1.726
17.61 K, x2 = 0.9 | 1.04
17.65 K, x2 = 0.2 | 2.087
17.67 K, x2 = 0.1 | 2.125
18.87 K, x2 = 0.9 | 1.31
18.91 K, x2 = 0.2 | 2.55
18.94 K, x2 = 0.1 | 2.599
20.24 K, x2 = 0.9 | 1.649
20.26 K, x2 = 0.2 | 3.105
20.29 K, x2 = 0.1 | 3.156
21.7 K, x2 = 0.9 | 2.061
21.71 K, x2 = 0.2 | 3.756
21.74 K, x2 = 0.1 | 3.81
23.25 K, x2 = 0.9 | 2.563
23.26 K, x2 = 0.2 | 4.514
23.29 K, x2 = 0.1 | 4.578
24.92 K, x2 = 0.9 | 3.165
24.93 K, x2 = 0.2 | 5.396
24.96 K, x2 = 0.1 | 5.463
26.71 K, x2 = 0.9 | 3.859
26.72 K, x2 = 0.2 | 6.429
26.74 K, x2 = 0.1 | 6.508
28.63 K, x2 = 0.2 | 7.596
28.64 K, x2 = 0.9 | 4.716
28.66 K, x2 = 0.1 | 7.674
30.69 K, x2 = 0.2 | 8.768
30.7 K, x2 = 0.9 | 5.671
30.71 K, x2 = 0.1 | 8.824
32.89 K, x2 = 0.2 | 10.16
32.9 K, x2 = 0.9 | 6.785
32.91 K, x2 = 0.1 | 10.29
35.25 K, x2 = 0.2 | 11.67
35.27 K, x2 = 0.9 | 8.039
35.28 K, x2 = 0.1 | 11.82
37.78 K, x2 = 0.2 | 13.3
37.81 K, x2 = 0.1 | 13.48
37.81 K, x2 = 0.9 | 9.437
